# Source: PubChem BioAssay AID463229 (Broad Institute, 2010)
# Values joined by “and” are separate entries in the source; they are usually repeats but may differ in a detail not shown here. Equal values may be shown once. Active and inactive are the calls of the source.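 The calls were made as follows: active = compounds raising the signal whose fitted half-maximal concentration is at or below their top tested dose (cut at about 25 µM in these data); inconclusive = flat fit at 30 to 70% activity, or a poor fit; inactive = the rest.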
# Test system: INS-1E rat beta cells, no cytokines, CellTiter-Glo ATP, 48 h
# Test: cytokine-free beta-cell viability effect – INS-1E rat cells, ATP luminescence, cherry pick, counter-screen for beta-cell apoptosis protection project, dose response (AID 463229)
row,Compound,AC50
1,C/C(=N\NC(=O)c1nnn(-c2nonc2N)c1CN1CCc2ccccc21)c1ccccc1O,11.4 µM
2,O=C(C(Cl)Cl)N1c2ccccc2OCC1c1ccccc1 (centres undefined),8.31 µM
3,Cc1cccc(OCc2n(CC(=O)OC3CC(C)CCC3C(C)C)c3ccccc3[n+]2C)c1 (centres undefined),4.12 µM
4,Clc1ccc(C(Cn2ccnc2)OCc2csc3c(Cl)cccc23)c(Cl)c1 (centres undefined),14.6 µM
5,N#CC(C#N)=NNc1ccc(-n2ccc(C(F)(F)F)n2)cc1,7.8 µM
6,O=[N+]([O-])c1cc(Cl)cc(/C=N\Nc2ccccn2)c1O,2.55 µM
7,C(=C\c1nc(N2CCCCCC2)c2ccccc2n1)/c1ccccc1,5.15 µM
8,O=C(NCc1ccccc1)C1=C[C@H](c2csc3ccccc23)C[C@H](OCCCCO)O1,6.75 µM
9,CCCCCCCC[n+]1c(C)n(-c2ccccc2)c2ccc(NC(C)=O)cc21,3.76 µM
10,c1ccc(CNc2nc(NCc3ccccc3)c3ccccc3n2)cc1,11.1 µM
11,COc1ccccc1NC(=O)CN(c1ccc(C23CC4CC(CC(C4)C2)C3)cc1)S(C)(=O)=O,5.11 µM
12,Cc1sc2ncnc(NC3CCN(Cc4ccccc4)CC3)c2c1C,5.11 µM
13,COc1ccc(/C=N/Nc2cc(C)nc3ccc(Br)cc23)cc1,7.02 µM
14,COc1cccc(/C=N/NC(=O)c2ccoc2C)c1O,11 µM
15,CCOC(=O)N1CCN(S(=O)(=O)c2ccc(C(=O)NNc3nc4c(C)cc(C)cc4s3)cc2)CC1,11.3 µM
16,O=C(Nc1cc(Sc2ccccn2)cc([N+](=O)[O-])c1)c1cccc(F)c1,8.51 µM
17,CC[C@H](C)[C@@H](C(=O)NCCCCCCCCCCC(=O)N1CCN(C(=O)OC(C)(C)C)CC1)n1cc(CCCCCNC(=O)OC(C)(C)C)nn1,5.92 µM
18,CCC(=O)NC(c1ccc(C)cc1)c1cc([N+](=O)[O-])c2cccnc2c1O (centres undefined),13.8 µM
19,CC(C)Cn1c(N)c(C(=O)CSc2ccc3c(c2)OCCO3)c(=O)n(C)c1=O,4.85 µM
20,C=C1C(=O)O[C@@H]2C[C@@H](C)[C@@H]3C4OC4C(=O)[C@@]3(C)[C@@H](O)[C@H]12 (some centres undefined),7.57 µM
21,CCOc1ccc(S(=O)(=O)NCc2ccncc2)cc1,1.65 µM
22,O=C(COc1ccc([N+](=O)[O-])cc1)Nc1ccc(C(=O)NCc2cccnc2)cc1,0.369 µM
23,O=C(/C(=C/c1ccc(Cl)cc1)c1nc2ccccc2[nH]1)c1cccs1,4.4 µM
24,CN(C)C(=O)c1ccc(NC(=O)c2cccc(S(=O)(=O)N3CCCCCC3)c2)cc1,> 26 µM (inactive)
25,Cc1ccc(/C=C/C(=O)c2ccc([N+](=O)[O-])o2)cc1,7.11 µM
26,CCCC[n+]1ccn(C2=C([O-])c3ccccc3C(=O)/C2=N\S(=O)(=O)c2ccc(Cl)cc2)c1,15.8 µM
27,O=C(NC(c1cccnc1)C(F)(F)F)c1cc(COc2ccc3c(c2)CCCC3)on1 (centres undefined),4.62 µM

row,Compound,AC50
1,CCOC(=O)c1ccc(NC(=O)c2cccnc2)cc1,6.64 µM
2,COc1ccc(C(C)NCCC(c2ccc(OC(C)C)cc2)c2ccccc2OC)cc1 (centres undefined),7.99 µM
3,CC(C)C[C@H]1CN=C(Nc2ccccc2)N1CCc1ccc(F)cc1,> 26 µM (inactive)
4,C[C@H]1CCC/C=C/[C@@H]2C[C@H](O)C[C@H]2[C@H](O)/C=C/C(=O)O1,0.948 µM and 1 µM
5,O=C(CCC(=O)Nc1ccc(Cl)cc1Cl)N/N=C/c1ccc([N+](=O)[O-])o1,13.8 µM
6,Cc1cc(N2CCC(C)CC2)nc(NCc2ccccc2)n1,12.3 µM
7,O=C(Nc1ccc(Br)c(C(F)(F)F)c1)c1ccc(C(F)(F)F)cc1,7.74 µM
8,CCN(CC)c1ccc(/C=N/NC(=O)c2nnn(-c3nonc3N)c2C(C)C)c(O)c1,1.16 µM
9,CCCCCCCCSc1nnc(CSc2nc3nc(C)cc(C)n3n2)o1,26.1 µM
10,C/C(=N\NC(=O)c1ccccc1NC(=O)c1ccc(Cl)cc1)c1ccncc1,0.967 µM
11,O=[N+]([O-])c1cccc2c(N3CCCC3)ccnc12,7.28 µM
12,Cc1ccc(/C=N/NC(=O)c2c(-c3ccccc3)noc2C)c(O)c1,7.91 µM
13,Cc1ccc(/C=N/Nc2ccnc3cc(Cl)ccc23)c(C)c1,13.4 µM
14,COc1cc(/C=C/C(=O)c2ccc([N+](=O)[O-])o2)ccc1O,3.91 µM
15,CCCNC(=O)c1ccc2c(=O)c(O)c(-c3ccc(Cl)c([N+](=O)[O-])c3)[nH]c2c1,10.8 µM
16,O=C(COc1ccccc1-c1ccccc1)N/N=C/c1ccc2ccccc2c1,8.67 µM
17,COc1ccc(-c2nc(NC(=O)c3cc(C(C)(C)C)nn3C)sc2C)cc1,17.6 µM
18,COc1cc(OC)c2cc(C(=O)N/N=C/c3cccc(OC)c3O)[nH]c2c1,15.5 µM
19,CCCCNc1cc(C)nc(NCc2ccccc2)n1,8.1 µM
20,Cc1cc2nc(NCCCO)n(CC(=O)c3cc(C(C)(C)C)c(O)c(C(C)(C)C)c3)c2cc1C,8.83 µM
21,CCc1ccc(-n2cc(-c3ccc(F)cc3)[n+]3c2SCCC3)cc1,0.413 µM
22,CCOC(=O)c1cnc(-n2nc(C)cc2C)nc1NCc1ccccc1,7.8 µM
23,Cc1nc2cc(-c3ccccc3)sc2c(=O)n1N,3.6 µM
24,O=C(Nc1ccc(S(=O)(=O)N2CCOCC2)cc1)c1ccc([N+](=O)[O-])s1,6.8 µM
25,CC(=O)N1c2ccc(S(=O)(=O)N3CCC(C(=O)N4CCN(c5cccc(C(F)(F)F)c5)CC4)CC3)cc2CC1C (centres undefined),5.82 µM
26,O=C(c1cc(-c2cccc(O)c2)on1)N1CCN(C(c2ccccc2)c2ccccc2)CC1,14.4 µM
27,CN(C)CCCNc1c2ccccc2nc2ccccc12,16.2 µM
